Measurements from the OligoGym collection.
HELM strings list units from the 5' end as sugar, base in round brackets, then linkage (d deoxyribose, r ribose, m 2'-O-methyl, p phosphodiester). [sp] = phosphorothioate linkage

Columns and labels:
CDKN2B-AS1 [1] = assay: HEK293-TLR7, 100 nM ASO, then resiquimod
CDKN2B-AS1 [2] = assay: HEK293-TLR8, 100 nM ASO, then resiquimod

| Substance | TLR7 signal (NF-kB luciferase) (% of resiquimod alone) (CDKN2B-AS1 [1]) | TLR8 potentiation (NF-kB luciferase) (fold of resiquimod alone) (CDKN2B-AS1 [2]) |
| --- | --- | --- |
| RNA1{m(A)[sp].m(G)[sp].m(C)[sp].m(A)[sp].m(G)[sp].d(T)[sp].d(C)[sp].d(T)[sp].d(C)[sp].d(C)[sp].d(A)[sp].d(T)[sp].d(G)[sp].d(T)[sp].d(C)[sp].m(C)[sp].m(C)[sp].m(A)[sp].m(G)[sp].m(G)}$$$$ | 25.5 | 2.81 |
| RNA1{m(A)[sp].m(G)[sp].m(G)[sp].m(A)[sp].m(U)[sp].d(T)[sp].d(A)[sp].d(A)[sp].d(A)[sp].d(A)[sp].d(C)[sp].d(A)[sp].d(G)[sp].d(A)[sp].d(T)[sp].m(U)[sp].m(A)[sp].m(A)[sp].m(U)[sp].m(A)}$$$$ | 36.3 | 2.19 |
| RNA1{m(A)[sp].m(G)[sp].m(G)[sp].m(C)[sp].m(C)[sp].d(T)[sp].d(C)[sp].d(C)[sp].d(A)[sp].d(G)[sp].d(T)[sp].d(G)[sp].d(T)[sp].d(C)[sp].d(T)[sp].m(U)[sp].m(C)[sp].m(U)[sp].m(C)[sp].m(C)}$$$$ | 44.7 | 2.19 |
| RNA1{m(A)[sp].m(G)[sp].m(U)[sp].m(C)[sp].m(U)[sp].d(C)[sp].d(C)[sp].d(A)[sp].d(T)[sp].d(G)[sp].d(T)[sp].d(C)[sp].d(C)[sp].d(C)[sp].d(A)[sp].m(G)[sp].m(G)[sp].m(C)[sp].m(C)[sp].m(U)}$$$$ | 35.8 | 1.64 |
| RNA1{m(A)[sp].m(G)[sp].m(U)[sp].m(G)[sp].m(G)[sp].d(C)[sp].d(A)[sp].d(C)[sp].d(A)[sp].d(T)[sp].d(A)[sp].d(C)[sp].d(C)[sp].d(A)[sp].d(C)[sp].m(A)[sp].m(C)[sp].m(C)[sp].m(C)[sp].m(U)}$$$$ | 42 | 2.24 |
| RNA1{m(A)[sp].m(U)[sp].m(A)[sp].m(U)[sp].m(C)[sp].d(T)[sp].d(G)[sp].d(C)[sp].d(T)[sp].d(G)[sp].d(C)[sp].d(C)[sp].d(C)[sp].d(A)[sp].d(C)[sp].m(C)[sp].m(U)[sp].m(U)[sp].m(C)[sp].m(U)}$$$$ | 47.5 | 2.55 |
| RNA1{m(A)[sp].m(U)[sp].m(U)[sp].m(U)[sp].m(C)[sp].d(C)[sp].d(A)[sp].d(C)[sp].d(A)[sp].d(T)[sp].d(G)[sp].d(C)[sp].d(C)[sp].d(C)[sp].d(A)[sp].m(G)[sp].m(U)[sp].m(G)[sp].m(U)[sp].m(U)}$$$$ | 32 | 2.06 |
| RNA1{m(C)[sp].m(A)[sp].m(G)[sp].m(G)[sp].m(C)[sp].d(C)[sp].d(T)[sp].d(C)[sp].d(C)[sp].d(A)[sp].d(G)[sp].d(T)[sp].d(G)[sp].d(T)[sp].d(C)[sp].m(U)[sp].m(U)[sp].m(C)[sp].m(U)[sp].m(C)}$$$$ | 54.1 | 2.02 |
| RNA1{m(C)[sp].m(A)[sp].m(G)[sp].m(U)[sp].m(C)[sp].d(T)[sp].d(C)[sp].d(C)[sp].d(A)[sp].d(T)[sp].d(G)[sp].d(T)[sp].d(C)[sp].d(C)[sp].d(C)[sp].m(A)[sp].m(G)[sp].m(G)[sp].m(C)[sp].m(C)}$$$$ | 47.8 | 2.73 |
| RNA1{m(C)[sp].m(A)[sp].m(G)[sp].m(U)[sp].m(G)[sp].d(T)[sp].d(T)[sp].d(T)[sp].d(T)[sp].d(T)[sp].d(A)[sp].d(A)[sp].d(T)[sp].d(T)[sp].d(T)[sp].m(U)[sp].m(G)[sp].m(U)[sp].m(A)[sp].m(G)}$$$$ | 62.7 | 3.18 |
| RNA1{m(C)[sp].m(C)[sp].m(A)[sp].m(U)[sp].m(G)[sp].d(T)[sp].d(C)[sp].d(C)[sp].d(C)[sp].d(A)[sp].d(G)[sp].d(G)[sp].d(C)[sp].d(C)[sp].d(T)[sp].m(C)[sp].m(C)[sp].m(A)[sp].m(G)[sp].m(U)}$$$$ | 41.4 | 1.24 |
| RNA1{m(C)[sp].m(C)[sp].m(U)[sp].m(A)[sp].m(G)[sp].d(A)[sp].d(A)[sp].d(A)[sp].d(G)[sp].d(A)[sp].d(A)[sp].d(G)[sp].d(C)[sp].d(A)[sp].d(A)[sp].m(A)[sp].m(G)[sp].m(A)[sp].m(U)[sp].m(U)}$$$$ | 57.2 | 3.58 |
| RNA1{m(C)[sp].m(U)[sp].m(C)[sp].m(U)[sp].m(C)[sp].d(T)[sp].d(T)[sp].d(T)[sp].d(C)[sp].d(T)[sp].d(G)[sp].d(T)[sp].d(G)[sp].d(G)[sp].d(T)[sp].m(U)[sp].m(U)[sp].m(C)[sp].m(U)[sp].m(C)}$$$$ | 92.3 | 3.82 |
| RNA1{m(C)[sp].m(U)[sp].m(U)[sp].m(C)[sp].m(A)[sp].d(C)[sp].d(A)[sp].d(T)[sp].d(C)[sp].d(C)[sp].d(A)[sp].d(A)[sp].d(G)[sp].d(A)[sp].d(C)[sp].m(A)[sp].m(G)[sp].m(C)[sp].m(A)[sp].m(A)}$$$$ | 55 | 2.26 |
| RNA1{m(C)[sp].m(U)[sp].m(U)[sp].m(G)[sp].m(U)[sp].d(G)[sp].d(A)[sp].d(A)[sp].d(A)[sp].d(A)[sp].d(G)[sp].d(A)[sp].d(T)[sp].d(T)[sp].d(A)[sp].m(U)[sp].m(C)[sp].m(U)[sp].m(U)[sp].m(C)}$$$$ | 85.3 | 3.89 |
| RNA1{m(G)[sp].m(A)[sp].m(A)[sp].m(A)[sp].m(A)[sp].d(G)[sp].d(A)[sp].d(T)[sp].d(T)[sp].d(A)[sp].d(T)[sp].d(C)[sp].d(T)[sp].d(T)[sp].d(C)[sp].m(U)[sp].m(U)[sp].m(U)[sp].m(U)[sp].m(A)}$$$$ | 34.4 | 1.31 |
| RNA1{m(G)[sp].m(A)[sp].m(G)[sp].m(U)[sp].m(U)[sp].d(C)[sp].d(T)[sp].d(T)[sp].d(C)[sp].d(G)[sp].d(T)[sp].d(A)[sp].d(G)[sp].d(G)[sp].d(C)[sp].m(U)[sp].m(U)[sp].m(C)[sp].m(U)[sp].m(G)}$$$$ | 25.9 | 0.96 |
| RNA1{m(G)[sp].m(A)[sp].m(U)[sp].m(U)[sp].m(A)[sp].d(A)[sp].d(A)[sp].d(A)[sp].d(C)[sp].d(A)[sp].d(G)[sp].d(A)[sp].d(T)[sp].d(T)[sp].d(A)[sp].m(A)[sp].m(U)[sp].m(A)[sp].m(C)[sp].m(A)}$$$$ | 21.9 | 0.73 |
| RNA1{m(G)[sp].m(C)[sp].m(A)[sp].m(G)[sp].m(U)[sp].d(C)[sp].d(T)[sp].d(C)[sp].d(C)[sp].d(A)[sp].d(T)[sp].d(G)[sp].d(T)[sp].d(C)[sp].d(C)[sp].m(C)[sp].m(A)[sp].m(G)[sp].m(G)[sp].m(C)}$$$$ | 20.3 | 1.79 |
| RNA1{m(G)[sp].m(G)[sp].m(A)[sp].m(C)[sp].m(A)[sp].d(C)[sp].d(T)[sp].d(T)[sp].d(A)[sp].d(G)[sp].d(C)[sp].d(T)[sp].d(G)[sp].d(T)[sp].d(T)[sp].m(C)[sp].m(C)[sp].m(U)[sp].m(C)[sp].m(G)}$$$$ | 45.8 | 1.13 |
| RNA1{m(G)[sp].m(G)[sp].m(A)[sp].m(G)[sp].m(A)[sp].d(T)[sp].d(C)[sp].d(A)[sp].d(G)[sp].d(A)[sp].d(T)[sp].d(G)[sp].d(A)[sp].d(G)[sp].d(A)[sp].m(G)[sp].m(G)[sp].m(A)[sp].m(G)[sp].m(C)}$$$$ | 26.3 | 1.05 |
| RNA1{m(G)[sp].m(G)[sp].m(A)[sp].m(U)[sp].m(U)[sp].d(A)[sp].d(A)[sp].d(A)[sp].d(A)[sp].d(C)[sp].d(A)[sp].d(G)[sp].d(A)[sp].d(T)[sp].d(T)[sp].m(A)[sp].m(A)[sp].m(U)[sp].m(A)[sp].m(C)}$$$$ | 27.2 | 1.16 |
| RNA1{m(G)[sp].m(G)[sp].m(U)[sp].m(G)[sp].m(G)[sp].d(C)[sp].d(C)[sp].d(A)[sp].d(C)[sp].d(A)[sp].d(G)[sp].d(G)[sp].d(C)[sp].d(A)[sp].d(A)[sp].m(C)[sp].m(G)[sp].m(U)[sp].m(C)[sp].m(A)}$$$$ | 39.1 | 0.8 |
| RNA1{m(G)[sp].m(U)[sp].m(C)[sp].m(A)[sp].m(A)[sp].d(A)[sp].d(C)[sp].d(C)[sp].d(T)[sp].d(A)[sp].d(G)[sp].d(A)[sp].d(A)[sp].d(A)[sp].d(G)[sp].m(A)[sp].m(A)[sp].m(G)[sp].m(C)[sp].m(A)}$$$$ | 23.6 | 1.6 |
| RNA1{m(G)[sp].m(U)[sp].m(C)[sp].m(C)[sp].m(C)[sp].d(A)[sp].d(G)[sp].d(G)[sp].d(C)[sp].d(C)[sp].d(T)[sp].d(C)[sp].d(C)[sp].d(A)[sp].d(G)[sp].m(U)[sp].m(G)[sp].m(U)[sp].m(C)[sp].m(U)}$$$$ | 19 | 1.05 |
| RNA1{m(G)[sp].m(U)[sp].m(C)[sp].m(G)[sp].m(U)[sp].d(G)[sp].d(G)[sp].d(C)[sp].d(A)[sp].d(A)[sp].d(A)[sp].d(T)[sp].d(A)[sp].d(G)[sp].d(T)[sp].m(C)[sp].m(C)[sp].m(U)[sp].m(A)[sp].m(G)}$$$$ | 27.5 | 2.12 |
| RNA1{m(G)[sp].m(U)[sp].m(C)[sp].m(U)[sp].m(C)[sp].d(C)[sp].d(A)[sp].d(T)[sp].d(G)[sp].d(T)[sp].d(C)[sp].d(C)[sp].d(C)[sp].d(A)[sp].d(G)[sp].m(G)[sp].m(C)[sp].m(C)[sp].m(U)[sp].m(C)}$$$$ | 23.8 | 1.01 |
